Measurements reported in article PMC11080515, “Novel anthraquinone amide derivatives as potential glyoxalase-I inhibitors” (Journal of Medicine and Life, 2024).
Several values for one entry are separate records, joined by “and”; a condition that tells them apart may be missing. Identical values can stand only once. Like-named read-outs stand apart in the source and are kept apart here.

Molecular target: T1, Recombinant human Glo-I (rhGlo-I) (Homo sapiens, UniProt Q04760)
T1 construct: purchased R&D Systems Corporation
T1 sequence (Q04760 2-184 limits assumed): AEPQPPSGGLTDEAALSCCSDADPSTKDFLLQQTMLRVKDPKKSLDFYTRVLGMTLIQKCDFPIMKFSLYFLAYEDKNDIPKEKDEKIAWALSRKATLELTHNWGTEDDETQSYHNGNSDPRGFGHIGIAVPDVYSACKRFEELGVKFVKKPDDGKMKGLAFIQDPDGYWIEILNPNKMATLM
Assay: In vitro Glo-I enzyme inhibition assay (spectrophotometric, 240 nm)
Format: biochemical
Design: average inhibitory activity: dose or concentration left out as unconfirmed
Conditions: for % Inhibition / inhibition at 1.25 µM / inhibition at 2.5 µM / inhibition at 5 µM / inhibition at 10 µM / inhibition at 0.625 µM: single replicates
Protocol: Glo-I inhibitory action was evaluated following the methodology described by Al-Balas et al.. Recombinant human Glo-I (rhGlo-I) was procured from R&D Systems Corporation and […] in sterile deionized water at a precise concentration of 0.5 mg/ml before being reconstituted. The reconstituted rhGlo-I was stored at -70 °C until further use. Dimethyl sulfoxide (DMSO) was used to dissolve the test compounds to produce stock solutions with a 10 mM concentration. The assay buffer required for the experiment was made by mixing 0.1 M sodium phosphate monobasic solution with 0.1 M sodium phosphate dibasic solution, resulting in a pH range of 7.0–7.2. The reduced glutathione and methylglyoxal solutions were combined with a sufficient 0.1 M sodium phosphate assay buffer volume to create the substrate combination. In a cuvette, the assay buffer, substrate solution, and Glo-I enzyme were combined with the synthesized products at the required concentration. […] The maximum absorbance (γmax) was recorded at 240 nm.
In this study, the inhibitory activity of all synthesized compounds against the Glo-I enzyme was evaluated in vitro using recombinant human Glo-I obtained from R&D Systems Corporation. The methodology previously described was employed, which involved measuring the inhibition of Glo-I activity and substrate hydrolysis using a spectrophotometer at 240 nm. […] The activity profile of the tested compounds against Glo-I is depicted in Figure 12.

[1] = concentration 0.625 µM, 0.625 µM
[2] = from the % inhibition curve, 0.625-10 µM, read-out: Calculated IC50
[3] = rhGlo-I, 25 °C, pH 7.0-7.2, read-out: IC50

| Compound | % Inhibition [1] | inhibition at 1.25 µM (concentration 1.25 µM) [%] | % Inhibition (concentration 1.25 µM, 1.25 µM) | inhibition at 2.5 µM (concentration 2.5 µM) [%] | % Inhibition (concentration 2.5 µM, 2.5 µM) | inhibition at 5 µM (concentration 5 µM) [%] | % Inhibition (concentration 5 µM, 5 µM) | inhibition at 10 µM (concentration 10 µM) [%] | % Inhibition (concentration 10 µM, 10 µM) | IC50 [2] [µM] | IC50 [3] | average inhibitory activity [%] | inhibition at 0.625 µM (concentration 0.625 µM) [%] |
| --- | --- | --- | --- | --- | --- | --- | --- | --- | --- | --- | --- | --- | --- |
| O=C(/C=C/c1ccc(O)c(O)c1)Nc1cccc2c1C(=O)c1ccccc1C2=O [MQ1, (E)-3-(3,4-dihydroxyphenyl)-N-(9, 10-dioxo-9, 10-dihydroanthracen-1-yl) acrylamide] | 4.207% and 6.929% and 8.658% | 12 | 11.45% and 12.03% | 11.8 | 13.44% and 14.71% | 18.8 | 20.12% and 19.93% | 33.4 | 34.53% and 33.46% | 27.9 | 27.9 µM |  |  |
| O=C(/C=C/c1ccc(O)c(O)c1)Nc1ccc2c(c1)C(=O)c1ccccc1C2=O [MQ3, (E)-3-(3,4-dihydroxyphenyl)-N-(9, 10-dioxo-9, 10-dihydroanthracen-2-yl) acrylamide] | 28.34% and 22.6726% | 39.2 | 42.53% and 40.76% | 69.6 | 70.04% and 70.55% | 82.3 | 84.9% and 85.44% | 97.5 | 93.8% and 98.6% | 1.46 | 1.46 µM and 1.45 µM | 96.63 | 27.5 |
| O=C(C=Cc1ccccc1)Nc1ccc2c(c1)C(=O)c1ccccc1C2=O [MQ4, N-(9, 10-dioxo-9, 10-dihydroanthracen-2-yl) cinnamamide] | 6.208% and 1.894% and 2.93% | 5.03 | 3.871% and 7.392% | 10.8 | 12.3% and 11.67% | 19.4 | 20.18% and 23.19% | 40.4 | 41.45% and 37.85% | 14.5 | 14.5 µM |  |  |
| O=C(C=Cc1ccccc1)Nc1cccc2c1C(=O)c1ccccc1C2=O [MQ5, N-(9, 10-dioxo-9, 10-dihydroanthracen-1-yl) cinnamamide] | 8.55% and 10.84% | 10.2 | 9.974% and 12.33% | 14.3 | 12.23% and 12.25% | 11.6 | 12.81% and 20.99% | 22 | 29% and 27.36% | 107 | 107 µM |  | 8.82 |
